Reference: patent US12552825B2 (Zikani Therapeutics, Inc., priority 2019, dated 2026)
In brackets after ≈: the same amount, converted by molar mass.

Legend:
Type in all cases: cell-based
S. aureus MP-12 = experiment: microbe, parasite or virus in culture; conditions: Staphylococcus aureus, MP12, read-out: MIC S. aureus MP-12
E. coli MP-4 = experiment: MIC determination by CLSI broth dilution, E. coli MP-4; conditions: Escherichia coli, MP4, CLSI broth dilution; strain MP-4
K. pneumoniae MP-648 = experiment: MIC determination by CLSI broth dilution, K. pneumoniae MP-648; conditions: Klebsiella pneumoniae, MP648, CLSI broth dilution; strain MP-648
P. aeruginosa MP-3 = experiment: MIC determination by CLSI broth dilution, P. aeruginosa MP-3; conditions: Pseudomonas aeruginosa, MP3, strain MP-3
A. baumannii MP-15 = experiment: MIC determination by CLSI broth dilution, A. baumannii MP-15; conditions: Acinetobacter baumannii, MP15, strain MP-15, read-out: MIC A. baumanii MP-15

SMILES	MIC (S. aureus MP-12)	MIC (E. coli MP-4)	MIC (K. pneumoniae MP-648)	MIC (P. aeruginosa MP-3)	MIC (A. baumannii MP-15)
CCN1CCN(C[C@H]2COC(=O)C(C)(C)C(=O)[C@H](C)[C@@H](O[C@@H]3O[C@H](C)C[C@H](N(C)C)[C@H]3O)[C@](C)(OC)C[C@@H](C)CN2C)CC1 [Compound 155, (3S,6R,8R,9R,10R)-9-(((2S,3R,4S,6R)-4-(dimethylamino)-3-hydroxy-6-methyltetrahydro-2H-pyran-2-yl)oxy)-3-((4-ethylpiperazin-1-yl)methyl)-8-methoxy-4,6,8,10,12,12-hexamethyl-1-oxa-4-azacyclotridecane-11,13-dione]	4 to 32 µg/mL (≈ 6.38 to 51 µM)	< 4 µg/mL	4 to 32 µg/mL (≈ 6.38 to 51 µM)	> 32 µg/mL	> 32 µg/mL
CO[C@]1(C)C[C@@H](C)CN(C)[C@@H](CN2CCN(C(C)C)CC2)COC(=O)C(C)(C)C(=O)[C@H](C)[C@H]1O[C@@H]1O[C@H](C)C[C@H](N(C)C)[C@H]1O [Compound 156, (3S,6R,8R,9R,10R)-9-(((2S,3R,4S,6R)-4-(dimethylamino)-3-hydroxy-6-methyltetrahydro-2H-pyran-2-yl)oxy)-3-((4-isopropylpiperazin-1-yl)methyl)-8-methoxy-4,6,8,10,12,12-hexamethyl-1-oxa-4-azacyclotridecane-11,13-dione]	4 to 32 µg/mL (≈ 6.24 to 49.9 µM)	< 4 µg/mL	4 to 32 µg/mL (≈ 6.24 to 49.9 µM)	> 32 µg/mL	> 32 µg/mL
CCN1C[C@H](C)C[C@@](C)(OC)[C@H](O[C@@H]2O[C@H](C)C[C@H](N(C)C)[C@H]2O)[C@@H](C)C(=O)C(C)(C)C(=O)OC[C@@H]1CN1CCN(C)CC1 [Compound 157, (3S,6R,8R,9R,10R)-9-(((2S,3R,4S,6R)-4-(dimethylamino)-3-hydroxy-6-methyltetrahydro-2H-pyran-2-yl)oxy)-4-ethyl-8-methoxy-6,8,10,12,12-pentamethyl-3-((4-methylpiperazin-1-yl)methyl)-1-oxa-4-azacyclotridecane-11,13-dione]	4 to 32 µg/mL (≈ 6.38 to 51 µM)	< 4 µg/mL	4 to 32 µg/mL (≈ 6.38 to 51 µM)	> 32 µg/mL	> 32 µg/mL
CCN1CCN(C[C@H]2COC(=O)C(C)(C)C(=O)[C@H](C)[C@@H](O[C@@H]3O[C@H](C)C[C@H](N(C)C)[C@H]3O)[C@](C)(OC)C[C@@H](C)CN2CC)CC1 [Compound 158, (3S,6R,8R,9R,10R)-9-(((2S,3R,4S,6R)-4-(Dimethylamino)-3-hydroxy-6-methyltetrahydro-2H-pyran-2-yl)oxy)-4-ethyl-3-((4-ethylpiperazin-1-yl)methyl)-8-methoxy-6,8,10,12,12-pentamethyl-1-oxa-4-azacyclotridecane-11,13-dione]	4 to 32 µg/mL (≈ 6.24 to 49.9 µM)	< 4 µg/mL	4 to 32 µg/mL (≈ 6.24 to 49.9 µM)	> 32 µg/mL	> 32 µg/mL
CCN1C[C@H](C)C[C@@](C)(OC)[C@H](O[C@@H]2O[C@H](C)C[C@H](N(C)C)[C@H]2O)[C@@H](C)C(=O)C(C)(C)C(=O)OC[C@@H]1CN1CCN(C(C)C)CC1 [Compound 159]	4 to 32 µg/mL (≈ 6.11 to 48.9 µM)	< 4 µg/mL	4 to 32 µg/mL (≈ 6.11 to 48.9 µM)	> 32 µg/mL	> 32 µg/mL
CCN1C[C@H](C)C[C@@](C)(OC)[C@H](O[C@@H]2O[C@H](C)C[C@H](N(C)C)[C@H]2O)[C@@H](C)C(=O)C(C)(C)C(=O)OC[C@H]1CC1CCN(CCO)CC1 [Compound 169, (3R,6R,8R,9R,10R)-9-(((2S,3R,4S,6R)-4-(Dimethylamino)-3-hydroxy-6-methyltetrahydro-2H-pyran-2-yl)oxy)-4-ethyl-3-((1-(2-hydroxyethyl)piperidin-4-yl)methyl)-8-methoxy-6,8,10,12,12-pentamethyl-1-oxa-4-azacyclotridecane-11,13-dione]	4 to 32 µg/mL (≈ 6.1 to 48.8 µM)	< 4 µg/mL	4 to 32 µg/mL (≈ 6.1 to 48.8 µM)	> 32 µg/mL	> 32 µg/mL
CCN1C[C@H](C)C[C@@](C)(OC)[C@H](O[C@@H]2O[C@H](C)C[C@H](N(C)C)[C@H]2O)[C@@H](C)C(=O)C(C)(C)C(=O)OC[C@H]1CC1CCN(CCOC)CC1 [Compound 170]	4 to 32 µg/mL (≈ 5.97 to 47.8 µM)	< 4 µg/mL	< 4 µg/mL	> 32 µg/mL	> 32 µg/mL
CO[C@]1(C)C[C@@H](C)CN(C)[C@H](CC2CCN(CCO)CC2)COC(=O)C(C)(C)C(=O)[C@H](C)[C@H]1O[C@@H]1O[C@H](C)C[C@H](N(C)C)[C@H]1O [Compound 178]	> 32 µg/mL	< 4 µg/mL	< 4 µg/mL	> 32 µg/mL	> 32 µg/mL
CCN1C[C@H](C)C[C@@](C)(OC)[C@H](O[C@@H]2O[C@H](C)C[C@H](N(C)C)[C@H]2O)[C@@H](C)C(=O)C(C)(C)C(=O)OC[C@@H]1CCCN1CCN(C)CC1 [Compound 180]	> 32 µg/mL	< 4 µg/mL	> 32 µg/mL	> 32 µg/mL	> 32 µg/mL
CCN1C[C@H](C)C[C@@](C)(OC)[C@H](O[C@@H]2O[C@H](C)C[C@H](N(C)C)[C@H]2O)[C@@H](C)C(=O)C(C)(C)C(=O)OC[C@@H]1CCCN1CCN(c2ccncc2)CC1 [Compound 181]	> 32 µg/mL	< 4 µg/mL	> 32 µg/mL	> 32 µg/mL	> 32 µg/mL
CCN1C[C@H](C)C[C@@](C)(OC)[C@H](O[C@@H]2O[C@H](C)C[C@H](N(C)C)[C@H]2O)[C@@H](C)C(=O)C(C)(C)C(=O)OC[C@H]1C=C1CCN(C2Cc3ccccc3C2)CC1 [Compound 191]	< 4 µg/mL	< 4 µg/mL	< 4 µg/mL	> 32 µg/mL	4 to 32 µg/mL (≈ 5.51 to 44.1 µM)
CCN1C[C@H](C)C[C@@](C)(OC)[C@H](O[C@@H]2O[C@H](C)C[C@H](N(C)C)[C@H]2O)[C@@H](C)C(=O)C(C)(C)C(=O)OC[C@H]1C=C1CCN(Cc2ccccc2)CC1 [Compound 192]	< 4 µg/mL	< 4 µg/mL	4 to 32 µg/mL (≈ 5.71 to 45.7 µM)	> 32 µg/mL	4 to 32 µg/mL (≈ 5.71 to 45.7 µM)
CCN1C[C@H](C)C[C@@](C)(OC)[C@H](O[C@@H]2O[C@H](C)C[C@H](N(C)C)[C@H]2O)[C@@H](C)C(=O)C(C)(C)C(=O)OC[C@H]1[C@H](O)CCN(C)CC(F)(F)F [Compound 193, (3S,6R,8R,9R,10R)-9-(((2S,3R,4S,6R)-4-(dimethylamino)-3-hydroxy-6-methyltetrahydro-2H-pyran-2-yl)oxy)-4-ethyl-3-((R)-1-hydroxy-3-(methyl(2,2,2-trifluoroethyl)amino)propyl)-8-methoxy-6,8,10,12,12-pentamethyl-1-oxa-4-azacyclotridecane-11,13-dione]	> 32 µg/mL	4 to 32 µg/mL (≈ 5.85 to 46.8 µM)	> 32 µg/mL	> 32 µg/mL	> 32 µg/mL
CCN1C[C@H](C)C[C@@](C)(OC)[C@H](O[C@@H]2O[C@H](C)C[C@H](N(C)C)[C@H]2O)[C@@H](C)C(=O)C(C)(C)C(=O)OC[C@H]1[C@H](O)CCN(C)Cc1ccccc1 [Compound 194]	4 to 32 µg/mL (≈ 5.78 to 46.2 µM)	< 4 µg/mL	< 4 µg/mL	> 32 µg/mL	4 to 32 µg/mL (≈ 5.78 to 46.2 µM)
CO[C@]1(C)C[C@@H](C)CN(C)[C@H](/C=C/CN(C)Cc2ccc(F)cc2)COC(=O)C(C)(C)C(=O)[C@H](C)[C@H]1O[C@@H]1O[C@H](C)C[C@H](N(C)C)[C@H]1O [Compound 195]	4 to 32 µg/mL (≈ 5.9 to 47.2 µM)	< 4 µg/mL	4 to 32 µg/mL (≈ 5.9 to 47.2 µM)	> 32 µg/mL	4 to 32 µg/mL (≈ 5.9 to 47.2 µM)
CCN(C)[C@H]1C[C@H](C[C@]2(C)COC(=O)C(C)(C)C(=O)[C@H](C)[C@@H](O[C@@H]3O[C@H](C)C[C@H](N(C)C)[C@H]3O)[C@](C)(OC)C[C@@H](C)CN2C)C1 [Compound 196]	4 to 32 µg/mL (≈ 6.25 to 50 µM)	< 4 µg/mL	> 32 µg/mL	> 32 µg/mL	> 32 µg/mL
